Values after ≈ are worked out from the molar mass of the structure shown.
Key:
[1] = Metabolic stability in mouse liver microsomes assessed as compound remaining after 30 mins; format: ADME, Microsome; settings: read-out: Stability
[2] = Kinetic solubility of the compound; format: physicochemical; settings: read-out: Kinetic_solubility
[3] = Metabolic stability in human liver microsomes assessed as compound remaining after 30 mins; format: ADME, Microsome; settings: read-out: Stability
[4] = biological target: T1, Isocitrate dehydrogenase [NADP] cytoplasmic (Homo sapiens, UniProt O75874, R132C); test: Inhibition of human Myc-DDK-tagged IDH1 R132C mutant assessed as reduction in NADPH consumption pre-incubated for 15 mins followed by alpha-ketoglutarate substrate and NADPH addition after 45 mins by diaphorase and resazurin dye based assay
[5] = biological target: T1, Isocitrate dehydrogenase [NADP] cytoplasmic; test: Inhibition of IDH1 R132C mutant in human HCT116 cells assessed as reduction in 2-HG levels after 24 hrs by RapidFire high-throughput mass spectrometry assay; format: cell-based
[6] = Metabolic stability in rat liver microsomes assessed as compound remaining after 30 mins; format: ADME, Microsome; settings: read-out: Stability
[7] = Octanol/aqueous buffer partition coefficient, log D of the compound at pH 7.4; format: physicochemical

T1 sequence (O75874 2-414 R132C limits assumed): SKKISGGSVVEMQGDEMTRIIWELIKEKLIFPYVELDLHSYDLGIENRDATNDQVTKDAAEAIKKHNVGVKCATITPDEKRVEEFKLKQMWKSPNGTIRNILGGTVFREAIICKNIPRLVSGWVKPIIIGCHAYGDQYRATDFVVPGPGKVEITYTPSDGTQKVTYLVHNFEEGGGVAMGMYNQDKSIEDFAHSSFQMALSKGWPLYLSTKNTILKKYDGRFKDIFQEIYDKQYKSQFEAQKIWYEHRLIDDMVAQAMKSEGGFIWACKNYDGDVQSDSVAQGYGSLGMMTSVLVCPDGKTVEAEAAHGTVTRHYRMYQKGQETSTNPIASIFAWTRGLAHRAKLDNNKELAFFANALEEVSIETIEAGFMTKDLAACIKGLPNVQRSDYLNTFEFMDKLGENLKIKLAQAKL

SMILES	remaining at 0.5 h [1] [%]	solubility kinetic [2] [µM]	remaining at 0.5 h [3] [%]	IC50 [4] [µM]	IC50 [5] [µM]	remaining at 0.5 h [6] [%]	logD [7]
N#Cc1ccc(NCc2cc3cc(Cl)ccc3[nH]c2=O)cc1F	49	< 0.1	100				
COc1nc(N[C@@H](C)c2cc3cc(Cl)c(OC(C)C)cc3[nH]c2=O)ncc1C#N		0.43 (≈ 0.178 µg/mL)	100	0.026	0.104	90	
COc1cc(NCc2cc3cc(Cl)c(OCc4ccccn4)cc3[nH]c2=O)ccc1C#N	73.4	< 0.1	30	0.225			
N#Cc1ccc(NCc2cc3cc(Cl)ccc3[nH]c2=O)cc1C(F)(F)F	100	< 0.1	100				
COc1nc(N[C@@H](C)c2cc3cc(Cl)c(OCC4CC4)cc3[nH]c2=O)ncc1C#N		< 0.1	100	0.053	0.054	100	
COc1cc(NCc2cc3cc(F)ccc3[nH]c2=O)ccc1C#N	46	3.32 (≈ 1.07 µg/mL)	81				
Cc1nc(NC(C)c2cc3cc(Cl)ccc3[nH]c2=O)ccc1C#N (racemic)	96	12.2 (≈ 4.13 µg/mL)	100	0.606			
COc1cc(NCc2cc3cc(Cl)cc(OCc4ccccn4)c3[nH]c2=O)ccc1C#N				3.48			
COc1cc(NCc2cc3cc(Cl)c(OCCN4CCCC4=O)cc3[nH]c2=O)ccc1C#N	14.3	0.53 (≈ 0.247 µg/mL)	2.5	2.67			
COc1nc(N[C@@H](C)c2cc3cc(Cl)c(OCc4ccccn4)cc3[nH]c2=O)ncc1C#N		1.5 (≈ 0.694 µg/mL)	97	0.043	0.022	77	
COc1nc(N[C@@H](C)c2cc3cc(Cl)c(F)cc3[nH]c2=O)ncc1C#N		1.2 (≈ 0.449 µg/mL)	89	0.184	0.259	100	
COc1nc(C#N)ccc1N[C@@H](C)c1cc2cc(Cl)ccc2[nH]c1=O	60	4.8 (≈ 1.7 µg/mL)	100	1.02	0.338		2.5
COc1cc(NCc2cc3cc(Cl)ccc3[nH]c2=O)ccc1-n1cnnn1	89.9	< 0.01	93.9				
N#Cc1ccc(NCc2cc3cc(Cl)ccc3[nH]c2=O)nc1C(F)(F)F	100	< 0.1	94				
Cc1nc(N[C@@H](C)c2cc3cc(Cl)ccc3[nH]c2=O)ccc1C#N	94	5.7 (≈ 1.93 µg/mL)	98	0.183	0.269		3.74
COc1cc(NCc2cc3cc(Br)ccc3[nH]c2=O)ccc1C#N	39	0.18 (≈ 0.0692 µg/mL)	89				
N#Cc1ccc(NCc2cc3cc(Cl)ccc3[nH]c2=O)cc1	53	0.21 (≈ 0.065 µg/mL)	65				
O=c1[nH]c2ccc(Cl)cc2cc1CNc1ccc(-n2ccnc2)cc1	93	1.57 (≈ 0.551 µg/mL)	98				
COc1nc(N[C@@H](C)c2cc3cc(Cl)ccc3[nH]c2=O)ccc1C#N		0.08 (≈ 0.0284 µg/mL)	82	0.19	0.092		3.47
COc1cc(NCc2cc3cc(Cl)c(OCc4cc(C)n(C)n4)cc3[nH]c2=O)ccc1C#N	52.7	< 0.01	32.7	0.317			
COc1cc(NCc2cc3cc(Cl)cc(OC)c3[nH]c2=O)ccc1C#N	3.4	< 0.1	53	88.6			
COc1cc(C#N)ccc1NCc1cc2cc(Cl)ccc2[nH]c1=O	2.1	< 0.1	79				
N#Cc1ccc(NCc2cc3cc(Cl)ccc3[nH]c2=O)nc1	75	0.42 (≈ 0.131 µg/mL)	91				
COc1cc(NCc2cc3cc(Cl)c(OC4CCN(C)CC4)cc3[nH]c2=O)ccc1C#N	78.8	0.41 (≈ 0.186 µg/mL)	4.3	5.1			
CCOc1cc(NCc2cc3cc(Cl)ccc3[nH]c2=O)ccc1C#N	29	< 0.1	78				
N#Cc1ccc(NCc2cc3cc(Cl)ccc3[nH]c2=O)cc1OC(F)(F)F	72	< 0.1	72				
Cc1nc(NC2(c3cc4cc(Cl)ccc4[nH]c3=O)CC2)ccc1C#N	77	< 0.1	91				
COc1cc(NCc2cc3cc(C)ccc3[nH]c2=O)ccc1-n1cnnn1	42.3	< 0.01	30.8				

— ChEMBL document CHEMBL4359816, “Discovery and Optimization of Quinolinone Derivatives as Potent, Selective, and Orally Bioavailable Mutant Isocitrate Dehydrogenase 1 (mIDH1) Inhibitors” (J Med Chem, 2019)
